Laboratory results from ChEMBL document CHEMBL1137360, “Structure-activity relationships of a novel series of urotensin II analogues: identification of a urotensin II antagonist” (J Med Chem, 2006).
Activity calls are given as the source filed them. The rule behind the calls is not given here. Positions of bridges follow the written chain, without caps; N, C: chain ends. Non-standard residues stand in square brackets, D forms with d. Residues, ends and D or L forms follow the SMILES beside them. Tyr(3-NO2) = N[C@@H](Cc1ccc(O)c([N+](=O)[O-])c1)C(=O)O; Phe(4-COOH) = N[C@@H](Cc1ccc(C(=O)O)cc1)C(=O)O; Phe(4-tBu) = CC(C)(C)c1ccc(C[C@H](N)C(=O)O)cc1; Tyr(3-I) = N[C@@H](Cc1ccc(O)c(I)c1)C(=O)O; Oic = O=C(O)[C@@H]1C[C@@H]2CCCC[C@@H]2N1; Phe(4-NH2) = Nc1ccc(C[C@H](N)C(=O)O)cc1; Bta = N[C@@H](Cc1csc2ccccc12)C(=O)O; 2Thi = N[C@@H](Cc1cccs1)C(=O)O; Cha = N[C@@H](CC1CCCCC1)C(=O)O; NMeD = CN[C@@H](CC(=O)O)C(=O)O; pGlu = O=C1CC[C@@H](C(=O)O)N1; Pen = CC(C)(S)[C@H](N)C(=O)O; Aib = CC(C)(N)C(=O)O

What was measured:
[1] = target: T1, Urotensin-2 receptor (Rattus norvegicus) (UniProt P49684); assay: Antagonist activity against 1 uM human urotensin-2-induced contraction of rat aortic ring; assay type: functional, tissue-based; details: Aorta
T1 sequence (whole entry): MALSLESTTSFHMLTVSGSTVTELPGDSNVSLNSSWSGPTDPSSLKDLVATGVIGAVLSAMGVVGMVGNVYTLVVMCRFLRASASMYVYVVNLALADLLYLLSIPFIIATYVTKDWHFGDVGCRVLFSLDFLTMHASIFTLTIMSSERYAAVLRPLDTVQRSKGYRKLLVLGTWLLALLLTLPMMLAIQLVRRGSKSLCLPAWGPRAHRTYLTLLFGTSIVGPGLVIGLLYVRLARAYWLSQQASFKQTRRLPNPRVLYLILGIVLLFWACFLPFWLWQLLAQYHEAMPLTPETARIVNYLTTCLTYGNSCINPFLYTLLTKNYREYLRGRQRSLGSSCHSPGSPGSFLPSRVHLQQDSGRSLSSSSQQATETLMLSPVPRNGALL

[2] = organism: Rattus norvegicus; assay: Agonist activity in rat aortic ring contraction assay relative to 1 uM phenylephrine; assay type: functional
[3] = target: T2, Urotensin-2 receptor (Homo sapiens, UniProt Q9UKP6); assay: Displacement of [125I]human urotensin-2 from human GPR14 transfected in CHO cells; assay type: cell-based; details: for Log Ki: cho
T2 sequence (Q9UKP6 whole entry): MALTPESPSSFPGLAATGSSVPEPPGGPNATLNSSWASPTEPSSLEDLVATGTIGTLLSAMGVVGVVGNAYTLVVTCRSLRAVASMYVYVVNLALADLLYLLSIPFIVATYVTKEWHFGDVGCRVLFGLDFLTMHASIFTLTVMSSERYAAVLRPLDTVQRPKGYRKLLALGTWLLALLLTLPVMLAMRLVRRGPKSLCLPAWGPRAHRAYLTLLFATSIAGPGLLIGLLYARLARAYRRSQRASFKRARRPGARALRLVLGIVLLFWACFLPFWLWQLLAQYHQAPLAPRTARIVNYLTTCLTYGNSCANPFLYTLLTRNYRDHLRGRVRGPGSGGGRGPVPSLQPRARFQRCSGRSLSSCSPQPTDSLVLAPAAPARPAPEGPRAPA

[4] = organism: Rattus norvegicus; assay: Agonist activity in rat aortic ring contraction assay; assay type: functional; details: Aorta
[5] = organism: Rattus norvegicus; assay: Agonist activity in rat aortic ring contraction assay relative to 0.1 uM phenylephrine; assay type: functional, Aorta

| SMILES | Activity [1] | Activity ([2]; Aorta) | Ki [3] | EC50 [4] | Activity [2] | Activity [5] | Log Ki [3] |
| --- | --- | --- | --- | --- | --- | --- | --- |
| CC(C)[C@H](NC(=O)[C@@H]1CSSC[C@H](NC(=O)[C@@H](N)CC(=O)O)C(=O)N[C@H](CC2CCCCC2)C(=O)N[C@@H](Cc2c[nH]c3ccccc23)C(=O)N[C@@H](CCCCN)C(=O)N[C@@H](Cc2ccc(O)cc2)C(=O)N1)C(=O)O | inactive | inactive | > 10000 nM | > 10000 nM |  |  |  |
| CC(C)[C@H](NC(=O)[C@@H]1CSSC[C@H](NC(=O)[C@H](C)N)C(=O)N[C@@H](CC2CCCCC2)C(=O)N[C@@H](Cc2c[nH]c3ccccc23)C(=O)N[C@@H](CCCCN)C(=O)N[C@@H](Cc2ccc(O)cc2)C(=O)N1)C(=O)O (H-AC[Cha]WKYCV-OH; disulfide 2-7) | inactive |  | 263 nM | 933 nM | 36.9% |  |  |
| CC(C)[C@H](NC(=O)[C@@H]1CSSC[C@H](NC(=O)[C@@H](N)CC(=O)O)C(=O)N[C@@H](Cc2ccccc2)C(=O)N[C@@H](Cc2c[nH]c3ccccc23)C(=O)N[C@@H](CCCCN)C(=O)N[C@@H](Cc2ccc(O)cc2)C(=O)N1)C(=O)O (H-DCFWKYCV-OH; disulfide 2-7) | inactive |  | 1.23 nM | 5.01 nM | 102.1% |  |  |
| CC(C)[C@H](NC(=O)[C@@H]1CSSC[C@H](NC(=O)[C@@H](N)CC(=O)O)C(=O)N[C@@H](Cc2ccccc2)C(=O)N[C@@H](Cc2c[nH]c3ccccc23)C(=O)N[C@@H](CCCCN)C(=O)N[C@@H](Cc2ccc(C(=O)O)cc2)C(=O)N1)C(=O)O (H-DCFWK[Phe(4-COOH)]CV-OH; disulfide 2-7) | inactive |  | 74.1 nM | 1700 nM | 79.3% |  |  |
| CC(C)[C@H](NC(=O)[C@@H]1CSSC[C@H](NC(=O)[C@@H](N)CC(=O)O)C(=O)N[C@@H](Cc2ccccc2)C(=O)N[C@@H](Cc2c[nH]c3ccccc23)C(=O)N[C@@H](CCCCN)C(=O)N[C@@H](Cc2ccc(N)cc2)C(=O)N1)C(=O)O (H-DCFWK[Phe(4-NH2)]CV-OH; disulfide 2-7) | inactive |  | 10 nM | 427 nM | 97.7% |  |  |
| CC(C)[C@H](NC(=O)[C@@H]1CSSC[C@H](NC(=O)[C@@H](N)CC(=O)O)C(=O)N[C@@H](Cc2ccccc2)C(=O)N[C@@H](Cc2c[nH]c3ccccc23)C(=O)N[C@@H](CCCCN)C(=O)N[C@@H](Cc2ccc(C(C)(C)C)cc2)C(=O)N1)C(=O)O (H-DCFWK[Phe(4-tBu)]CV-OH; disulfide 2-7) | inactive |  | 9.12 nM | 23.4 nM | 88.5% |  |  |
| CC(C)[C@H](NC(=O)[C@@H]1CSSC[C@H](NC(=O)[C@@H](N)CC(=O)O)C(=O)N[C@@H](Cc2ccccc2)C(=O)N[C@@H](Cc2c[nH]c3ccccc23)C(=O)N[C@@H](CCCCN)C(=O)N[C@@H](Cc2ccc(O)c([N+](=O)[O-])c2)C(=O)N1)C(=O)O (H-DCFWK[Tyr(3-NO2)]CV-OH; disulfide 2-7) | inactive |  | 2.4 nM | 9.77 nM | 95% |  |  |
| CC(C)C[C@@H]1NC(=O)[C@@H](NC(=O)[C@@H](N)CC(=O)O)CSSC[C@@H](C(=O)N[C@H](C(=O)O)C(C)C)NC(=O)[C@H](Cc2ccc(O)cc2)NC(=O)[C@H](CCCCN)NC(=O)[C@H](Cc2c[nH]c3ccccc23)NC1=O (H-DCLWKYCV-OH; disulfide 2-7) | inactive |  | 132 nM | > 10000 nM |  | 38.7% |  |
| CC(C)[C@H](NC(=O)[C@@H]1CSSC[C@H](NC(=O)[C@@H](N)CC(=O)O)C(=O)N[C@@H](Cc2cccs2)C(=O)N[C@@H](Cc2c[nH]c3ccccc23)C(=O)N[C@@H](CCCCN)C(=O)N[C@@H](Cc2ccc(O)cc2)C(=O)N1)C(=O)O (H-DC[2Thi]WKYCV-OH; disulfide 2-7) [listing 1 of 2 here] |  |  |  | 8.91 nM |  |  | -8.54 |
| CC(C)[C@H](NC(=O)[C@@H]1CSSC[C@H](NC(=O)[C@@H](N)CC(=O)O)C(=O)N[C@@H](Cc2cccs2)C(=O)N[C@@H](Cc2c[nH]c3ccccc23)C(=O)N[C@@H](CCCCN)C(=O)N[C@@H](Cc2ccc(O)cc2)C(=O)N1)C(=O)O (H-DC[2Thi]WKYCV-OH; disulfide 2-7) [listing 2 of 2 here] |  |  |  |  | 94% |  |  |
| CC(C)[C@H](NC(=O)[C@@H]1CSSC[C@H](NC(=O)[C@@H](N)CC(=O)O)C(=O)N[C@@H](Cc2csc3ccccc23)C(=O)N[C@@H](Cc2c[nH]c3ccccc23)C(=O)N[C@@H](CCCCN)C(=O)N[C@@H](Cc2ccc(O)cc2)C(=O)N1)C(=O)O (H-DC[Bta]WKYCV-OH; disulfide 2-7) [listing 1 of 2 here] |  |  |  | 288 nM |  |  | -8.95 |
| CC(C)[C@H](NC(=O)[C@@H]1CSSC[C@H](NC(=O)[C@@H](N)CC(=O)O)C(=O)N[C@@H](Cc2csc3ccccc23)C(=O)N[C@@H](Cc2c[nH]c3ccccc23)C(=O)N[C@@H](CCCCN)C(=O)N[C@@H](Cc2ccc(O)cc2)C(=O)N1)C(=O)O (H-DC[Bta]WKYCV-OH; disulfide 2-7) [listing 2 of 2 here] |  |  |  |  | 73.8% |  |  |
| CC(C)[C@H](NC(=O)[C@@H]1CSSC[C@H](NC(=O)[C@@H](N)CC(=O)O)C(=O)N[C@@H](CC2CCCCC2)C(=O)N[C@@H](Cc2c[nH]c3ccccc23)C(=O)N[C@@H](CCCCN)C(=O)N[C@@H](Cc2ccc(O)c(I)c2)C(=O)N1)C(=O)O (H-DC[Cha]WK[Tyr(3-I)]CV-OH; disulfide 2-7) | inactive |  | 19.5 nM | 355 nM | 82.1% |  |  |
| CC(C)[C@H](NC(=O)[C@@H]1CSSC[C@H](NC(=O)[C@@H](N)CC(=O)O)C(=O)N2[C@@H](C[C@@H]3CCCC[C@@H]32)C(=O)N[C@@H](Cc2c[nH]c3ccccc23)C(=O)N[C@@H](CCCCN)C(=O)N[C@@H](Cc2ccc(O)cc2)C(=O)N1)C(=O)O (H-DC[Oic]WKYCV-OH; disulfide 2-7) |  |  |  | > 10000 nM |  |  | < -5 |
| CC(C)[C@H](NC(=O)[C@@H]1CSSC[C@H](NC(=O)[C@@H](N)CC(=O)O)C(=O)N[C@@H](Cc2ccc(C(C)(C)C)cc2)C(=O)N[C@@H](Cc2c[nH]c3ccccc23)C(=O)N[C@@H](CCCCN)C(=O)N[C@@H](Cc2ccc(O)cc2)C(=O)N1)C(=O)O (H-DC[Phe(4-tBu)]WKYCV-OH; disulfide 2-7) [listing 1 of 2 here] |  |  |  | 4.07 nM |  |  | -7.63 |
| CC(C)[C@H](NC(=O)[C@@H]1CSSC[C@H](NC(=O)[C@@H](N)CC(=O)O)C(=O)N[C@@H](Cc2ccc(C(C)(C)C)cc2)C(=O)N[C@@H](Cc2c[nH]c3ccccc23)C(=O)N[C@@H](CCCCN)C(=O)N[C@@H](Cc2ccc(O)cc2)C(=O)N1)C(=O)O (H-DC[Phe(4-tBu)]WKYCV-OH; disulfide 2-7) [listing 2 of 2 here] |  |  |  |  | 76.7% |  |  |
| CC(C)[C@H](NC(=O)[C@@H]1CSSC(C)(C)[C@H](NC(=O)[C@@H](N)CC(=O)O)C(=O)N[C@@H](CC2CCCCC2)C(=O)N[C@@H](Cc2c[nH]c3ccccc23)C(=O)N[C@@H](CCCCN)C(=O)N[C@@H](Cc2ccc(O)cc2)C(=O)N1)C(=O)O (H-D[Pen][Cha]WKYCV-OH; disulfide 2-7) | inactive |  | 155 nM | 1910 nM | 14.8% |  |  |
| CC(C)[C@H](NC(=O)[C@@H]1CSSC[C@H](NC(=O)[C@@H](N)CCC(=O)O)C(=O)N[C@@H](Cc2ccccc2)C(=O)N[C@@H](Cc2c[nH]c3ccccc23)C(=O)N[C@@H](CCCCN)C(=O)N[C@@H](Cc2ccc(O)cc2)C(=O)N1)C(=O)O (H-ECFWKYCV-OH; disulfide 2-7) | inactive |  | 2.95 nM | 4.79 nM | 82.1% |  |  |
| CC(C)[C@H](NC(=O)[C@@H]1CSSC[C@H](NC(=O)C(C)(C)N)C(=O)N[C@@H](Cc2ccccc2)C(=O)N[C@@H](Cc2c[nH]c3ccccc23)C(=O)N[C@@H](CCCCN)C(=O)N[C@@H](Cc2ccc(O)cc2)C(=O)N1)C(=O)O (H-[Aib]CFWKYCV-OH; disulfide 2-7) | inactive |  | 2.24 nM | 5.62 nM | 83.9% |  |  |
| CN[C@@H](CC(=O)O)C(=O)N[C@H]1CSSC[C@@H](C(=O)N[C@H](C(=O)O)C(C)C)NC(=O)[C@H](Cc2ccc(O)cc2)NC(=O)[C@H](CCCCN)NC(=O)[C@H](Cc2c[nH]c3ccccc23)NC(=O)[C@H](Cc2ccccc2)NC1=O (H-[NMeD]CFWKYCV-OH; disulfide 2-7) | inactive |  | 1.62 nM | 6.03 nM | 93.1% |  |  |
| CC(C)[C@H](NC(=O)[C@@H]1CSSC[C@H](NC(=O)[C@@H]2CCC(=O)N2)C(=O)N[C@@H](Cc2ccccc2)C(=O)N[C@@H](Cc2c[nH]c3ccccc23)C(=O)N[C@@H](CCCCN)C(=O)N[C@@H](Cc2ccc(O)cc2)C(=O)N1)C(=O)O ([pGlu]CFWKYCV-OH; disulfide 2-7) | inactive |  | 0.912 nM | 5.89 nM | 98.6% |  |  |
